Assay results published in ChEMBL document CHEMBL3885881, “DrugMatrix”.

Experiments:
Rattus norvegicus [1] = species: Rattus norvegicus; type: toxicity, organism-based, Sprague-Dawley; conditions: in vivo, po, 0 mg/kg, 24 h, route oral GAVAGE, dose level Control, time 1 day, vehicle 100 % WATER
Description: DrugMatrix - Regimen: Single

Rattus norvegicus [2] = species: Rattus norvegicus; test: DrugMatrix - Regimen: Daily Repeat; type: toxicity, organism-based, Sprague-Dawley; design: regimen Daily Repeat, gender Male, age 6-8 weeks; conditions: in vivo, po, 0 mg/kg, […], route oral GAVAGE, dose level Control, time 14 day, vehicle 100 % WATER

c1ccncc1 [PYRIDINE]
ABSOLUTE EOSINOPHIL (Rattus norvegicus [1]; tissue Blood): 91.83 CELLS/uL | ABSOLUTE LYMPHOCYTE (Rattus norvegicus [1]; tissue Blood): 13862.33 CELLS/uL | ABSOLUTE MONOCYTE (Rattus norvegicus [1]; tissue Blood): 437.83 CELLS/uL | ABSOLUTE SEGMENTED NEUTROPHIL (Rattus norvegicus [1]; tissue Blood): 1358 CELLS/uL | BASOPHIL (Rattus norvegicus [1]; tissue Blood): 0% | EOSINOPHIL (Rattus norvegicus [1]; tissue Blood): 0.5% | ERYTHROCYTE COUNT (Rattus norvegicus [1]; tissue Blood): 5.12 x10E6/uL | HEMATOCRIT (Rattus norvegicus [1]; tissue Blood): 31.77% | HEMOGLOBIN (Rattus norvegicus [1]; tissue Blood): 11.8 G/DL | LEUKOCYTE COUNT (Rattus norvegicus [1]; tissue Blood): 15.75 x10E3/uL | LYMPHOCYTE (Rattus norvegicus [1]; tissue Blood): 88.33% | MEAN CORPUSCULAR HEMOGLOBIN (Rattus norvegicus [1]; tissue Blood): 23.07 pg | MEAN CORPUSCULAR HEMOGLOBIN CONCENTRATION (Rattus norvegicus [1]; tissue Blood): 37.17 G/DL | MEAN CORPUSCULAR VOLUME (Rattus norvegicus [1]; tissue Blood): 62.15 fL | MONOCYTE (Rattus norvegicus [1]; tissue Blood): 2.67% | NEUTROPHIL (Rattus norvegicus [1]; tissue Blood): 8.5% | NUCLEATED RED BLOOD CELLS (Rattus norvegicus [1]; tissue Blood): 0 /100WBC | PLATELET COUNT (Rattus norvegicus [1]; tissue Blood): 1113.83 x10E3/uL | ALANINE AMINOTRANSFERASE (Rattus norvegicus [1]; tissue Plasma): 45.5 u/L | ALBUMIN (Rattus norvegicus [1]; tissue Plasma): 4.07 G/DL | ALKALINE PHOSPHATASE (Rattus norvegicus [1]; tissue Plasma): 343.83 u/L | ASPARTATE AMINOTRANSFERASE (Rattus norvegicus [1]; tissue Plasma): 70.67 u/L | BLOOD UREA NITROGEN (Rattus norvegicus [1]; tissue Plasma): 13 mg/dL | CARBON DIOXIDE (Rattus norvegicus [1]; tissue Plasma): 33 mmol/L | CHLORIDE (Rattus norvegicus [1]; tissue Plasma): 100.33 MEQ/L | CHOLESTEROL (Rattus norvegicus [1]; tissue Plasma): 76.67 mg/dL | CREATININE (Rattus norvegicus [1]; tissue Plasma): 0.12 mg/dL | GLUCOSE (Rattus norvegicus [1]; tissue Plasma): 148.67 mg/dL | LACTATE DEHYDROGENASE (Rattus norvegicus [1]; tissue Plasma): 116.67 u/L | LIPASE (Rattus norvegicus [1]; tissue Plasma): 8 u/L | PHOSPHORUS (Rattus norvegicus [1]; tissue Plasma): 12.58 mg/dL | POTASSIUM (Rattus norvegicus [1]; tissue Plasma): 6.33 MEQ/L | SODIUM (Rattus norvegicus [1]; tissue Plasma): 142.88 MEQ/L | TOTAL BILIRUBIN (Rattus norvegicus [1]; tissue Plasma): 0.18 mg/dL | TOTAL PROTEIN (Rattus norvegicus [1]; tissue Plasma): 5.77 G/DL | URIC ACID (Rattus norvegicus [1]; tissue Plasma): 1.27 mg/dL | ABSOLUTE BASOPHIL (Rattus norvegicus [2]; tissue Blood): 0 CELLS/uL | ABSOLUTE EOSINOPHIL (Rattus norvegicus [2]; tissue Blood): 117.17 CELLS/uL | ABSOLUTE LYMPHOCYTE (Rattus norvegicus [2]; tissue Blood): 12774.17 CELLS/uL | ABSOLUTE MONOCYTE (Rattus norvegicus [2]; tissue Blood): 419 CELLS/uL | ABSOLUTE SEGMENTED NEUTROPHIL (Rattus norvegicus [2]; tissue Blood): 2139.67 CELLS/uL | BASOPHIL (Rattus norvegicus [2]; tissue Blood): 0% | EOSINOPHIL (Rattus norvegicus [2]; tissue Blood): 0.67% | ERYTHROCYTE COUNT (Rattus norvegicus [2]; tissue Blood): 6.61 x10E6/uL | HEMATOCRIT (Rattus norvegicus [2]; tissue Blood): 37.58% | HEMOGLOBIN (Rattus norvegicus [2]; tissue Blood): 13.8 G/DL | LEUKOCYTE COUNT (Rattus norvegicus [2]; tissue Blood): 15.45 x10E3/uL | LYMPHOCYTE (Rattus norvegicus [2]; tissue Blood): 83% | MEAN CORPUSCULAR HEMOGLOBIN (Rattus norvegicus [2]; tissue Blood): 20.87 pg | MEAN CORPUSCULAR HEMOGLOBIN CONCENTRATION (Rattus norvegicus [2]; tissue Blood): 36.72 G/DL | MEAN CORPUSCULAR VOLUME (Rattus norvegicus [2]; tissue Blood): 56.85 fL | MONOCYTE (Rattus norvegicus [2]; tissue Blood): 2.67% | NEUTROPHIL (Rattus norvegicus [2]; tissue Blood): 13.67% | NUCLEATED RED BLOOD CELLS (Rattus norvegicus [2]; tissue Blood): 0 /100WBC | PLATELET COUNT (Rattus norvegicus [2]; tissue Blood): 1108.33 x10E3/uL | ALANINE AMINOTRANSFERASE (Rattus norvegicus [2]; tissue Plasma): 56.83 u/L | ALBUMIN (Rattus norvegicus [2]; tissue Plasma): 4.18 G/DL | ALKALINE PHOSPHATASE (Rattus norvegicus [2]; tissue Plasma): 354.33 u/L | ASPARTATE AMINOTRANSFERASE (Rattus norvegicus [2]; tissue Plasma): 93.33 u/L | BLOOD UREA NITROGEN (Rattus norvegicus [2]; tissue Plasma): 16.67 mg/dL | CARBON DIOXIDE (Rattus norvegicus [2]; tissue Plasma): 27.83 mmol/L | CHLORIDE (Rattus norvegicus [2]; tissue Plasma): 102.17 MEQ/L | CHOLESTEROL (Rattus norvegicus [2]; tissue Plasma): 62.33 mg/dL | CREATININE (Rattus norvegicus [2]; tissue Plasma): 0.2 mg/dL | GLUCOSE (Rattus norvegicus [2]; tissue Plasma): 137 mg/dL | LACTATE DEHYDROGENASE (Rattus norvegicus [2]; tissue Plasma): 407 u/L | LIPASE (Rattus norvegicus [2]; tissue Plasma): 10.83 u/L | PHOSPHORUS (Rattus norvegicus [2]; tissue Plasma): 11.45 mg/dL | POTASSIUM (Rattus norvegicus [2]; tissue Plasma): 6.51 MEQ/L | SODIUM (Rattus norvegicus [2]; tissue Plasma): 145.57 MEQ/L | TOTAL BILIRUBIN (Rattus norvegicus [2]; tissue Plasma): 0.2 mg/dL | TOTAL PROTEIN (Rattus norvegicus [2]; tissue Plasma): 6.3 G/DL | URIC ACID (Rattus norvegicus [2]; tissue Plasma): 1.93 mg/dL
